From the NIST ThermoML archive (doi:10.1021/je500389t)

Experiment: xn = mol fraction of the nth substance listed
Conditions: 101 kPa, Liquid; for viscosity: Capillary tube (Ostwald / Ubbelohde) method; for mass density: Pycnometric method

COCCOCCOC [2,5,8-trioxanonane] + O
Conditions | mass density, 293.15 K [kg/m3] | mass density, 298.15 K [kg/m3] | mass density, 303.15 K [kg/m3] | mass density, 308.15 K [kg/m3] | mass density, 313.15 K [kg/m3] | viscosity, 293.15 K [mPa·s] | viscosity, 298.15 K [mPa·s] | viscosity, 303.15 K [mPa·s] | viscosity, 308.15 K [mPa·s] | viscosity, 313.15 K [mPa·s]
x1 = 0.0147 | 1000.9 | 998.8 | 997.5 | 995.3 | 994.3 | 1.39 | 1.22 | 1.06 | 0.939 | 0.865
x1 = 0.0325 | 1004.6 | 1002.7 | 1000.2 | 998.1 | 995.2 | 1.9 | 1.66 | 1.41 | 1.23 | 1.09
x1 = 0.0548 | 1008.4 | 1005.5 | 1002.4 | 999.6 | 995.9 | 2.56 | 2.2 | 1.82 | 1.576 | 1.41
x1 = 0.0822 | 1010.3 | 1006.8 | 1003.1 | 999.7 | 995.8 | 3.21 | 2.73 | 2.22 | 1.91 | 1.7
x1 = 0.1183 | 1009.2 | 1004.8 | 1000.3 | 996.5 | 992.1 | 3.65 | 3.1 | 2.51 | 2.13 | 1.88
x1 = 0.1676 | 1003.2 | 998.7 | 994.1 | 990.1 | 985.4 | 3.63 | 3.09 | 2.53 | 2.14 | 1.9
x1 = 0.2384 | 993.6 | 988.3 | 983.9 | 979.3 | 974.5 | 3.12 | 2.7 | 2.24 | 1.92 | 1.72
x1 = 0.2866 | 987.3 | 982 | 977.5 | 973.2 | 968 | 2.75 | 2.42 | 2.01 | 1.75 | 1.58
x1 = 0.3468 | 980.1 | 974.9 | 970.4 | 965.6 | 960.8 | 2.36 | 2.1 | 1.77 | 1.5 | 1.42
x1 = 0.4495 | 970.7 | 965.4 | 960.9 | 956.2 | 951.1 | 1.97 | 1.77 | 1.47 | 1.31 | 1.21
x1 = 0.5426 | 963.6 | 958.5 | 953.8 | 949.2 | 943.8 | 1.61 | 1.47 | 1.27 | 1.14 | 1.06
x1 = 0.699 | 955.5 | 950.2 | 945.4 | 941 | 935.7 | 1.32 | 1.2 | 1.08 | 1 | 0.941
x1 = 0.7996 | 951.2 | 945.9 | 941.2 | 936.4 | 931.4 | 1.21 | 1.11 | 0.997 | 0.902 | 0.851
x1 = 0.8928 | 948.3 | 942.9 | 938.1 | 933.3 | 928.2 | 1.14 | 1.05 | 0.955 | 0.862 | 0.817
x1 = 1 | 945.2 | 939.8 | 935 | 930.7 | 925.4 | 1.09 | 0.998 | 0.914 | 0.834 | 0.785
